The subject of experiment [1] is membrane phosphotyrosine protein phosphatase (rat adipocytic membranes). The experiment is described as follows: Rat adipocytic membrane phosphotyrosine phosphatase activity, p-NPP substrate. The experiment is classed as biochemical. Conditions: 5 mM p-NPP. How it is done: 125 μL of a rat membrane suspension corresponding to 0.0856 mg of protein/mL was utilized.
(§1) 100% activity represents the activity in the absence of added chromium complexes or their components. 25 μL of a rat membrane suspension corresponding to 0.0895 mg protein/mL was utilized.
(§2) Fat cells from male Sprague Dawley rats were isolated using the procedures of Rodbell^19 and Anderson et al.^20 with modifications.^2 Three rats (not kept on a Cr-deficient diet) were sacrificed by decapitation, and their epididymal fat pads removed. Rat adipocytes were washed with 1% bovine serum albumin (BSA). 50 mM Hepes, pH 7.4 buffer containing 10 μg/mL leupeptin and 5 μg/mL aprotinin. Cells were homogenized with a manual teflon homogenizer and frozen and thawed five times. The lipid layer was removed, and the cell homogenate was centrifuged for one hour at 40,000 g. The supernatant was removed, and the pellet was suspended in Hepes buffer and used as the source of membrane phosphatase and kinase activity. Protein concentrations were analyzed using the BCA method (Pierce Chemical Co.) with BSA as standard.
p-nitrophenyl phosphate (p-NPP) was used to determine the amount of PTP activity using the method of Li et al.^21 The assay used 5 mM substrate in 0.05 M Tris, pH 7.5, unless noted. Activation of PTP activity by LMWCr and other Cr-containing species was examined as described by Davis et al.^2 Solutions of LMWCr, 1,2, and the Cr-amino acid mixture were incubated with the enzyme for fifteen minutes at 37° C. before initiation of the reaction. Hydrolyses proceeded for one hour at 37° C. The extent of hydrolysis was determined at 404 nm (ε=1.78×10^4M^−1cm^−1).

Experiment [2] deals with T1, insulin-dependent membrane tyrosine protein kinase activity (rat adipocytic membranes) (Rattus norvegicus, UniProt P15127).
T1 construct: from tissue; host or cells: epididymal fat pad adipocyte membranes, male Sprague Dawley rats
The experiment is described as follows: Rat adipocytic membrane protein tyrosine kinase activity in the presence of 100 nM insulin. It counts as biochemical. How it is done:
as §1, §2

Experiment [3] has as its system adult-onset diabetic patients. The following applies: cited from earlier work.

T1 sequence (P15127 764-1383 limits assumed): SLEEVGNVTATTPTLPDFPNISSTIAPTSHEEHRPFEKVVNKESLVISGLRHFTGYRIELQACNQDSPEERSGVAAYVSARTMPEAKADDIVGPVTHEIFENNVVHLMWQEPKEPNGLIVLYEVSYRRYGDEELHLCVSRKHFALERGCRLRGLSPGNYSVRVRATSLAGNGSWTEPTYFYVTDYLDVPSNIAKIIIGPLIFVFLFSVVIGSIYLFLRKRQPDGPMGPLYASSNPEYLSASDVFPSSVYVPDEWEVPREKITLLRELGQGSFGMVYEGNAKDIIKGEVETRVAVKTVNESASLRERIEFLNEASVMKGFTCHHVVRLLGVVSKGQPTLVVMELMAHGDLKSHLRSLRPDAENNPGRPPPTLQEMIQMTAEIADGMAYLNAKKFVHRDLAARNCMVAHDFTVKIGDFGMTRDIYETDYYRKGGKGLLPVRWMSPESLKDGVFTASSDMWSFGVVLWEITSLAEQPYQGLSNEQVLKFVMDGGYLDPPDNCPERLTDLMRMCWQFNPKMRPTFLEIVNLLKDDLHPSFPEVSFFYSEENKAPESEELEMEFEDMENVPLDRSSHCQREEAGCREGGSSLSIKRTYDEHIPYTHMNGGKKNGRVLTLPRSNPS
T1 sequence (P15127 27-759 partner limits assumed): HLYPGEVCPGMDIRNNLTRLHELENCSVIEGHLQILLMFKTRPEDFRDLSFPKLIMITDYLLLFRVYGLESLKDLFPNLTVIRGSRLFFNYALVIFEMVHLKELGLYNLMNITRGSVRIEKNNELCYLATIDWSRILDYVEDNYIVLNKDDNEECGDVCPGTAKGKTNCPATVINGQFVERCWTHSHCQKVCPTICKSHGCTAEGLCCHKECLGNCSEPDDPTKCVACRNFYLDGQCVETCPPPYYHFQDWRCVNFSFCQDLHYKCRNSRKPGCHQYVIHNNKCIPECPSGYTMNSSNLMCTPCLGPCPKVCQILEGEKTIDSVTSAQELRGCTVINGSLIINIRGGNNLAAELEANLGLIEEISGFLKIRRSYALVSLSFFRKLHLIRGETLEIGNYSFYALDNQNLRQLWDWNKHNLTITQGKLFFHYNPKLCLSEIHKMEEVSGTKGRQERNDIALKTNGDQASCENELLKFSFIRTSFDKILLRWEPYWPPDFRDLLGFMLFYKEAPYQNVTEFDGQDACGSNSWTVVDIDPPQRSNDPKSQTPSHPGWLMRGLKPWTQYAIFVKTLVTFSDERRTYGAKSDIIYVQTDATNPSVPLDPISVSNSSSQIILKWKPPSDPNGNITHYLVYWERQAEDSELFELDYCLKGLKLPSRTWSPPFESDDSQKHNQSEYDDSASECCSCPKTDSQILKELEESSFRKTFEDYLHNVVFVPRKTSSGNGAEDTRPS
T1 sequence (P01317 25-54 partner limits assumed): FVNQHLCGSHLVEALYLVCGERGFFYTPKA
T1 sequence (P01317 85-105 partner limits assumed): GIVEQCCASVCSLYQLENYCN

For `CCC(=O)O` [Propionic acid], the “effect on membrane phosphatase activity” value in experiment [1] is reported as “do not potentiate”. Besides, the “effect on insulin-dependent membrane kinase activity” value in experiment [2] is “do not potentiate”.

As to `O=[N+]([O-])O` [nitrate], the “effect on membrane phosphatase activity” value in experiment [1] is listed as “do not potentiate”. The “effect on insulin-dependent membrane kinase activity” value in experiment [2] is “do not potentiate”.

With [Cr3O(O2CCH3)6 (H2O)3]Cl [compound 2], in experiment [1], the “effect on membrane phosphatase activity” value is listed as “inhibits”. Moreover, in experiment [2], the “effect on insulin-dependent membrane kinase activity” value is “inhibits”.

chromium(III) picolinate: the insulin requirements result in experiment [3] (138 adult-onset diabetic patients) is listed as “reduced insulin requirements”. Moreover, the glycemic control result in experiment [3] (180 adult-onset diabetic patients) was “improved glycemic control”.

(Values after patent US6881752B2 (University of Alabama, priority 1998, dated 2005).)
